From US9700546B2, “Trivalent chromium compounds, compositions and methods of use” (INTERHEALTH NUTRACEUTICALS, INC., priority 2006, dated 2017)
“Also recorded” adds a separate entry of the source. Where two headings read alike, the source gives them in different places.

Experiments:
[1] = test system: Obese Zucker rats; test: In vivo assessment in obese Zucker rats: other vascular inflammation markers (cAMP, TNFα, IL-6, OxyDNA); settings: for IL-6 / TNFα / cAMP / OxyDNA: obese Zucker rats, daily 400 μg Cr(III)/kg, 8 weeks, mean ± SE; for OxyDNA: oxidative DNA damage
[2] = test system: Obese Zucker rats; test: In vivo assessment in obese Zucker rats: key biological parameters (fasting glucose, HbA1c, vitamin C, GSH, RBC lipid peroxidation); settings: for RBC Lipid Peroxidase: malondialdehyde by thiobarbituric acid; for RBC Lipid Peroxidase / Fasting Glucose / GSH / HbA1c / Vitamin C / blood vitamin C levels, effect in words / fasting glucose, effect in words / glycosylated hemoglobin, effect in words / red blood cell lipid peroxidation, effect in words: obese Zucker rats, 8 weeks; for RBC Lipid Peroxidase / Fasting Glucose / GSH / HbA1c / Vitamin C: daily 400 μg Cr(III)/kg, mean; for Fasting Glucose: fasted overnight; for Vitamin C: plasma; for blood vitamin C levels, effect in words / fasting glucose, effect in words / glycosylated hemoglobin, effect in words / red blood cell lipid peroxidation, effect in words: effect of administration
[3] = test system: Obese Zucker rats; test: In vivo assessment in obese Zucker rats: blood lipid profile (total cholesterol, triglycerides, HDL); settings: daily 400 μg Cr(III)/kg, 8 weeks, mean
[4] = test system: Obese Zucker rats; test: In vivo assessment in obese Zucker rats: body weight and food intake; settings: for Food Intake 5 wks / Food Intake 7 wks: obese Zucker rats, daily 400 μg Cr(III)/kg, mean; for Food Intake 5 wks: at 5 weeks; for Food Intake 7 wks: at 7 weeks
[5] = test system: Obese Zucker rats; settings: rat, in vivo
[6] = test system: Obese Zucker rats; test: In vivo assessment in obese Zucker rats: vascular inflammation markers (MCP-1, CRP, RBP-4, leptin, ICAM, adiponectin); settings: for Leptin / RBP-4 / Adiponectin / CRP / ICAM / MCP-1 / C-reactive protein, effect in words / adiponectin levels, effect in words / intracellular adhesion molecule, effect in words / monocyte chemotactic protein-1, effect in words: obese Zucker rats, 8 weeks; for Leptin / RBP-4 / Adiponectin / CRP / ICAM / MCP-1: daily 400 μg Cr(III)/kg, mean; for Adiponectin / CRP / ICAM / MCP-1: plasma, ELISA; for C-reactive protein, effect in words / adiponectin levels, effect in words / intracellular adhesion molecule, effect in words / monocyte chemotactic protein-1, effect in words: effect of administration
[7] = test system: Obese Zucker rats; test: In vivo assessment in obese Zucker rats: clinical chemistry (AP, BUN, CRT, AST, ALT)
[8] = men and women; cited from earlier work
[9] = compared to chromium nicotinate-glycine-cysteine-glutamic acid GTF complex of Toepfer et al.
[10] = listed as Chromium dinicocysteinate
[11] = listed as chromium dinicocysteinate
[12] = over chromium nicotinate, chromium picolinate and chromium histidinate

N=C(N)NCCC[C@H](N)C(=O)O [Arg, Arginine, reference compound]
IL-6 [1]: 97.80 ± 0.93 pg/mL | TNFα [1]: 25.45 ± 0.93 pg/mL | cAMP [1]: 34.98 ± 0.92 pmol/mL | OxyDNA [1]: 62.90 ± 2.71 ng/mL | RBC Lipid Peroxidase [2]: 2.23 nmol/mL | Fasting Glucose [2]: 446.60 mg/dL | GSH [2]: 4.77 µmol/g | HbA1c [2]: 15.88% | Vitamin C [2]: 0.14 mg % | HDL [3]: 68.69 mg/dL | Total Chol/HDL [3]: 2.86 ratio | Total Cholesterol [3]: 173.96 mg/dL | Triglyceride [3]: 485.74 mg/dL | Food Intake 5 wks [4]: 37.73 g/day | Food Intake 7 wks [4]: 46.80 g/day | ALT (Alanine Aminotransferease) [5]: 179.20 u/L | AP (Alkaline phosphatase) [5]: 35.50 u/L | AST (Aspartate Aminotransferase) [5]: 276.80 u/L | BUN (Blood Urea Nitrogen) [5]: 21.00 mg/dL | CRT (Creatinine) [5]: 0.40 mg/dL | Total Bilirubin [5]: 0.00 mg/dL | Leptin [6]: 431.72 pg/mL | RBP-4 [6]: 47211.67 ng/mL | Adiponectin [6]: 9958.63 ng/mL | CRP [6]: 617.34 ng/mL | ICAM [6]: 17940.91 pg/mL | MCP-1 [6]: 3878.85 pg/mL

Chromium Dinicotiante Glutamate [Cr(nic)2Glu]
IL-6 [1]: 89.50 ± 3.22 pg/mL | cAMP [1]: 29.97 ± 1.43 pmol/mL | OxyDNA [1]: 43.62 ± 2.69 ng/mL | RBC Lipid Peroxidase [2]: 2.30 nmol/mL | Fasting Glucose [2]: 490.43 mg/dL | GSH [2]: 5.05 µmol/g | HbA1c [2]: 14.69% | Vitamin C [2]: 0.14 mg % | HDL [3]: 65.57 mg/dL | Total Chol/HDL [3]: 2.94 ratio | Total Cholesterol [3]: 192.14 mg/dL | Triglyceride [3]: 666.50 mg/dL | Food Intake 5 wks [4]: 37.51 g/day | Food Intake 7 wks [4]: 39.92 g/day | Leptin [6]: 378.02 pg/mL | RBP-4 [6]: 46720.00 ng/mL | Adiponectin [6]: 12446.67 ng/mL | CRP [6]: 519.94 ng/mL | ICAM [6]: 16980.59 pg/mL | MCP-1 [6]: 3197.58 pg/mL | BUN/CRT Ratio ([7]; obese Zucker rats, mean ± SE): 44.71

Chromium Dinicotinate Aspartate [Cr(nic)2Asp]
IL-6 [1]: 88.91 ± 2.25 pg/mL | cAMP [1]: 27.95 ± 1.22 pmol/mL | OxyDNA [1]: 41.92 ± 1.46 ng/mL | RBC Lipid Peroxidase [2]: 2.02 nmol/mL | Fasting Glucose [2]: 496.33 mg/dL | GSH [2]: 5.15 µmol/g | HbA1c [2]: 15.62% | Vitamin C [2]: 0.12 mg % | HDL [3]: 70.17 mg/dL | Total Chol/HDL [3]: 2.88 ratio | Total Cholesterol [3]: 202.17 mg/dL | Triglyceride [3]: 699.67 mg/dL | Food Intake 5 wks [4]: 38.90 g/day | Food Intake 7 wks [4]: 40.00 g/day | Leptin [6]: 406.15 pg/mL | RBP-4 [6]: 57870.00 ng/mL | Adiponectin [6]: 12078.33 ng/mL | CRP [6]: 602.51 ng/mL | ICAM [6]: 17985.91 pg/mL | MCP-1 [6]: 1431.68 pg/mL

N[C@@H](CS)C(=O)O [Cys, Cysteine, reference compound]
IL-6 [1]: 95.33 ± 2.33 pg/mL | TNFα [1]: 24.28 ± 3.84 pg/mL | cAMP [1]: 32.94 ± 1.79 pmol/mL | OxyDNA [1]: 54.56 ± 5.69 ng/mL | RBC Lipid Peroxidase [2]: 2.34 nmol/mL | Fasting Glucose [2]: 483.49 mg/dL | GSH [2]: 4.70 µmol/g | HbA1c [2]: 15.17% | Vitamin C [2]: 0.13 mg % | HDL [3]: 68.26 mg/dL | Total Cholesterol [3]: 183.58 mg/dL | Triglyceride [3]: 503.57 mg/dL | Food Intake 5 wks [4]: 39.40 g/day | Food Intake 7 wks [4]: 39.87 g/day | ALT (Alanine Aminotransferease) [5]: 119.20 u/L | AP (Alkaline phosphatase) [5]: 36.40 u/L | AST (Aspartate Aminotransferase) [5]: 218.20 u/L | BUN (Blood Urea Nitrogen) [5]: 18.50 mg/dL | CRT (Creatinine) [5]: 0.42 mg/dL | Total Bilirubin [5]: 0.00 mg/dL | Leptin [6]: 477.65 pg/mL | RBP-4 [6]: 50915.00 ng/mL | Adiponectin [6]: 11532.37 ng/mL | CRP [6]: 551.39 ng/mL | ICAM [6]: 18512.88 pg/mL

Chromium Dinicotinate Glycinate [Cr(nic)2Gly, reference compound]
IL-6 [1]: 91.96 ± 3.83 pg/mL | cAMP [1]: 31.40 ± 1.57 pmol/mL | OxyDNA [1]: 45.62 ± 1.86 ng/mL | RBC Lipid Peroxidase [2]: 2.11 nmol/mL | Fasting Glucose [2]: 448.29 mg/dL | GSH [2]: 4.86 µmol/g | HbA1c [2]: 14.45% | Vitamin C [2]: 0.15 mg % | HDL [3]: 64.57 mg/dL | Total Chol/HDL [3]: 3.00 ratio | Total Cholesterol [3]: 193.14 mg/dL | Triglyceride [3]: 610.33 mg/dL | Food Intake 5 wks [4]: 34.29 g/day | Food Intake 7 wks [4]: 37.14 g/day | Leptin [6]: 461.16 pg/mL | RBP-4 [6]: 54900.00 ng/mL | Adiponectin [6]: 12552.86 ng/mL | CRP [6]: 535.98 ng/mL | ICAM [6]: 16691.40 pg/mL | MCP-1 [6]: 2897.61 pg/mL

Chromium Dinicocysteinate [Cr(nic)2Cys]
OxyDNA vs GTF complex, in words [1, 9]: decreased levels | TNFα vs GTF complex, in words [1, 9]: decreased levels | IL-6 [1]: 95.02 ± 1.99 pg/mL | TNFα [1]: 17.72 ± 3.35 pg/mL | cAMP [1]: 33.26 ± 2.61 pmol/mL | TNFα vs comparators, in words ([1]; over chromium picolinate and chromium histidinate): lowered levels | OxyDNA [1]: 46.92 ± 2.24 ng/mL | fasting glucose vs GTF complex, in words [2, 9]: decreased levels | glycosylated hemoglobin vs GTF complex, in words [2, 9]: decreased levels | red blood cell lipid peroxidation vs GTF complex, in words [2, 9]: decreased levels | vitamin C vs GTF complex, in words [2, 9]: increased levels | RBC Lipid Peroxidase [2]: 1.81 nmol/mL | blood vitamin C levels, effect in words [2, 10]: elevation | fasting glucose, effect in words [2, 10]: reductions | glycosylated hemoglobin, effect in words [2, 10]: reductions | red blood cell lipid peroxidation, effect in words [2, 10]: reductions | blood vitamin C levels, effect in words [2, 11]: increased | fasting glucose, effect in words [2, 11]: reducing | glycosylated hemoglobin, effect in words [2, 11]: reducing | red blood cell lipid peroxidation, effect in words [2, 11]: reducing; also recorded: reduced | Fasting Glucose [2]: 446.24 mg/dL | GSH [2]: 4.74 µmol/g | HbA1c [2]: 14.76% | fasting glucose vs comparators, in words [2, 12]: decreased levels | glycosylated hemoglobin vs comparators, in words [2, 12]: decreased levels | vitamin C vs comparators, in words [2, 12]: increased levels | red blood cell lipid peroxidase vs comparator, in words ([2]; over chromium picolinate): lower levels | Vitamin C [2]: 0.18 mg % | HDL [3]: 66.46 mg/dL | Total Cholesterol [3]: 188.46 mg/dL | Triglyceride [3]: 550.89 mg/dL | food intake vs GTF complex, in words [4, 9]: reduced | food intake, effect in words ([4]; effect of administration): reduction | Food Intake 5 wks [4]: 34.43 g/day | Food Intake 7 wks [4]: 38.62 g/day | adiponectin vs GTF complex, in words [6, 9]: increased levels | C-reactive protein, effect in words [6, 10]: reductions | adiponectin levels, effect in words [6, 10]: elevation | intracellular adhesion molecule, effect in words [6, 10]: reductions | monocyte chemotactic protein-1, effect in words [6, 10]: reductions | C-reactive protein, effect in words [6, 11]: reducing; also recorded: reductions | adiponectin levels, effect in words [6, 11]: increases | intracellular adhesion molecule, effect in words [6, 11]: reducing | monocyte chemotactic protein-1, effect in words [6, 11]: reducing; also recorded: reductions | Leptin [6]: 407.32 pg/mL | RBP-4 [6]: 49670.13 ng/mL | C-reactive protein vs comparators, in words [6, 12]: decreased levels | ICAM vs comparators, in words [6, 12]: decreased levels | adiponectin vs comparators, in words [6, 12]: increased levels | MCP-1 vs comparator, in words ([6]; over chromium picolinate): lower levels | Adiponectin [6]: 12732.11 ng/mL | CRP [6]: 569.96 ng/mL | ICAM [6]: 17057.51 pg/mL | MCP-1 [6]: 2829.17 pg/mL | alkaline phosphatase activities, effect in words ([7]; Zucker diabetic fatty rats, supplemented group): reduces | ALT vs GTF complex, in words [7, 9]: decreased levels | AST vs GTF complex, in words [7, 9]: decreased levels | blood creatinine, effect in words ([7]; effect of administration): reducing | ALT (Alanine Aminotransferease) ([7]; obese Zucker rats, mean ± SE): 99.00 u/L | AP (Alkaline phosphatase) ([7]; obese Zucker rats, mean ± SE): 35.15 u/L | Anion Gap ([7]; obese Zucker rats, mean ± SE): 29.62 | BUN (Blood Urea Nitrogen) ([7]; obese Zucker rats, mean ± SE): 18.23 mg/dL | CRT (Creatinine) ([7]; obese Zucker rats, mean ± SE): 0.41 mg/dL | Total Bilirubin ([7]; obese Zucker rats, mean ± SE): 0.05 mg/dL

chromium polynicotinate
chromium absorbed (average) [8]: 0.2 µg
